Assay type in all cases: biochemical
The target in one assay is T1, mouse MMP-7 (Mus musculus, UniProt Q10738).
T1 construct: purchased R&D Systems 2967-MP
T1 sequence (Q10738 95-264): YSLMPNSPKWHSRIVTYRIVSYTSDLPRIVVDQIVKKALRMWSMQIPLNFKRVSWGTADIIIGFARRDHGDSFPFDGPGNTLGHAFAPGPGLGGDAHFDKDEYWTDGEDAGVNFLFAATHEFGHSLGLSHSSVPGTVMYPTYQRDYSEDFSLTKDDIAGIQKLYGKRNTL
The assay is described as follows: In vitro mouse MMP-7 inhibition test. From the text:
(§1) The MMP-mediated amidolytic cleavage of a suitable peptide substrate leads to an increase in fluorescent light here too. The signal intensity of the fluorescent light is directly proportional to the enzyme activity. The active concentration of a test compound at which half the enzyme is inhibited (50% signal intensity of the fluorescent light) is reported as the IC50 value.
(§2) Recombinant mouse MMP-7 (from R&D Systems, 2967-MP) is chemically activated in accordance with the manufacturer's instructions using APMA. 1 μl of the test compound to be analysed (as a solution in DMSO, suitable concentrations, for example, 1 nM to 30 μM) is pipetted into 24 μl of activated enzyme (final concentration, for example, 0.5 nM) in reaction buffer (50 mM Tris/HCl pH 7.5, 10 mM CaCl2, 150 mM NaCl, 0.05% Brij®-35) in a white 384-hole microtiter plate (MTP). The enzymatic reaction is started by adding the intramolecularly quenched Mca-Lys-Pro-Leu-Gly-Leu-Dpa(Dnp)-Ala-Arg-NH2 substrate (final concentration, for example, 5 μM; R&D Systems, ES-010), so as to result in a total test volume of 50 μl. The course of the MMP-7 reaction is measured by measuring the fluorescence intensity (excitation 320 nm, emission 410 nm) over a suitable period of time (for example over 120 min at a temperature of 32° C.).

For another assay, the target named is T2, mouse MMP-8 (Mus musculus, UniProt O70138).
T2 construct: purchased R&D Systems 2904-MP
T2 sequence (O70138 101-465): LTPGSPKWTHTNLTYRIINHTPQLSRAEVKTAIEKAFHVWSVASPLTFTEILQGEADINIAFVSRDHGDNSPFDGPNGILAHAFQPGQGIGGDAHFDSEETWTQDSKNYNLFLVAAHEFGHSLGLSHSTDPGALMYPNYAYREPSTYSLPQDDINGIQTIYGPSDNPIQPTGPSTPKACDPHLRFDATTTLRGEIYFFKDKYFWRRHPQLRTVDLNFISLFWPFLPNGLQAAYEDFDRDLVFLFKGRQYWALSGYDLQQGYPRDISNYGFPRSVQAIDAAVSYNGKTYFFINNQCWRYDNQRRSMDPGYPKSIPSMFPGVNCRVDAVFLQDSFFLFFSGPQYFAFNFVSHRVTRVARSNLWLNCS
The assay is described as follows: In vitro mouse MMP-8 inhibition test.
Source text: as §1
as §2, with “MMP-8” for “MMP-7”, “2904-MP)” for “2967-MP)”, “2” for “0.5”

For the next assay, the target named is T3, mouse MMP-12 (Mus musculus, UniProt P34960).
T3 construct: purchased R&D Systems 3467-MP
T3 sequence (P34960 110-473): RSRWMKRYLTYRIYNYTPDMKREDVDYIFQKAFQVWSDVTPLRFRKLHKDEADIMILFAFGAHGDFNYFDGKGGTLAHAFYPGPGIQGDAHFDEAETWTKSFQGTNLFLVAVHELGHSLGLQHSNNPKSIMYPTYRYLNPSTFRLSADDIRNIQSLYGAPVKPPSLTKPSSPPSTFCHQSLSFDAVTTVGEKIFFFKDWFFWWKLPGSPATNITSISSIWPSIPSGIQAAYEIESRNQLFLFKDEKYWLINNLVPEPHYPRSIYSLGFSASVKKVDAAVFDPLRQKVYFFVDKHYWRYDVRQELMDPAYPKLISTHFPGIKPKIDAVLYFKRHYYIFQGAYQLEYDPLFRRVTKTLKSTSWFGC
Kind of assay: In vitro mouse MMP-12 inhibition test (standard or high-sensitivity).
Source text: as §1
as §2, with “MMP-12” for “MMP-7”, “3467-MP)” for “2967-MP)”, “autocatalytically” for “chemically”, “instructions.” for “instructions using APMA.”, “1” for “0.5”, “50” for “50 μl.”
In this case, an enzyme concentration ten times lower is used (final concentration, for example, 0.1 nM) in order to achieve an elevated test sensitivity. The incubation period chosen for the test is correspondingly longer (for example 16 hours).

The target of the next assay is T4, mouse MMP-3 (Mus musculus, UniProt P28862).
T4 construct: purchased R&D Systems 548-MP
T4 sequence (P28862 100-477): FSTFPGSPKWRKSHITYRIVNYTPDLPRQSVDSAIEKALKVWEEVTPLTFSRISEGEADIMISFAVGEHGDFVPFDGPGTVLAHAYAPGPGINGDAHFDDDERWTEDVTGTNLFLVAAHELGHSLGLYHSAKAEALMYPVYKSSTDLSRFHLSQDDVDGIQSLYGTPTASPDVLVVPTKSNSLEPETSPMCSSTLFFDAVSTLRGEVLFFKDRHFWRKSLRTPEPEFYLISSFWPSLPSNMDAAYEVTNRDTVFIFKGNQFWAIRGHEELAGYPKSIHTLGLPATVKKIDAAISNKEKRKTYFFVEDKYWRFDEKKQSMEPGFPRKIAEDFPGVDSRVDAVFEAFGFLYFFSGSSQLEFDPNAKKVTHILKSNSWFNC
The assay is described as follows: In vitro mouse MMP-3 inhibition test.
Source text: as §1
as §2, with “MMP-3” for “MMP-7”, “548-MP)” for “2967-MP)”, “Mca-Arg-Pro-Lys-Pro-Val-Glu-Nval-Trp-Arg-Lys(Dnp)-NH2” for “Mca-Lys-Pro-Leu-Gly-Leu-Dpa(Dnp)-Ala-Arg-NH2”, “ES-002),” for “ES-010),”

SMILES strings stand for the structures. pIC50: −log10 of the molar value.

On to `Cc1ccc2nnn(C[C@H]3CC[C@@H](C(=O)c4ccc(OCc5cccc(Cl)c5)cc4)[C@@H]3C(=O)O)c(=O)c2c1` (single isomer, unassigned) [Example 104, (+)-(1RS,2RS,5SR)-2-{4-[(3-Chlorobenzyl)oxy]benzoyl}-5-[(6-methyl-4-oxo-1,2,3-benzotriazin-3(4H)-yl)methyl]cyclopentanecarboxylic acid], for which the negative logarithm of the IC50 (pIC50) (commonly −log10 of the IC50, conventionally taken in molar units) at mouse MMP-7 is 7.70; against mouse MMP-8, 6.89; against mouse MMP-12 it was 8.96; at mouse MMP-3 it was 6.31.
The corresponding values for `O=C(O)[C@H]1[C@H](Cn2nnc3ccc(C(F)(F)F)cc3c2=O)CC[C@@H]1C(=O)c1ccc(SCc2ccc(Cl)c(Cl)c2)cc1` (racemic) [Example 79, (+/−)-(1RS,2RS,5SR)-2-{4-[(3,4-Dichlorobenzyl)sulphanyl]benzoyl}-5-{[4-oxo-6-(trifluoromethyl)-1,2,3-benzotriazin-3(4H)-yl]methyl}cyclopentanecarboxylic acid] are 5.96, 6.12, 7.46 and 5.03.
Consider `COC(=O)Nc1cccc(COc2ccc(C(=O)[C@@H]3CC[C@H](Cn4nnc5ccc(C(F)(F)F)cc5c4=O)[C@H]3C(=O)O)cc2)c1` (stereo in doubt) [Example 31, (+)-(1RS,2RS,5SR)-2-[4-({3-[(Methoxycarbonyl)amino]benzyl}oxy)benzoyl]-5-{[4-oxo-6-(trifluoromethyl)-1,2,3-benzotriazin-3(4H)-yl]methyl}cyclopentanecarboxylic acid], for which the pIC50 is 7.36 against mouse MMP-7, 7.05 against mouse MMP-8, 8.19 on mouse MMP-12 and 5.41 against mouse MMP-3.
For the molecule `O=C(O)[C@H]1[C@H](Cn2nnc3ccccc3c2=O)CC[C@@H]1C(=O)c1ccc(OCc2cccc(Cl)c2)cc1` (racemic) [Example 2, (+/−)-(1RS,2RS,5SR)-2-{4-[(3-Chlorobenzyl)oxy]benzoyl}-5-[(4-oxo-1,2,3-benzotriazin-3(4H)-yl)methyl]cyclopentanecarboxylic acid], the pIC50 is 6.85 at mouse MMP-7, 5.85 against mouse MMP-8, 8.39 at mouse MMP-12 and 5.89 on mouse MMP-3.
For `O=C(O)[C@H]1[C@H](Cn2nnc3ccccc3c2=O)CC[C@@H]1C(=O)c1ccc(OCc2ccc(Cl)c(Cl)c2)cc1` (racemic) [Example 3, (+/−)-(1RS,2RS,5SR)-2-{4-[(3,4-Dichlorobenzyl)oxy]benzoyl}-5-[(4-oxo-1,2,3-benzotriazin-3(4H)-yl)methyl]cyclopentanecarboxylic acid], in that order: 6.37, 6.09, 8.15 and 5.72.
Regarding `O=C(O)[C@H]1[C@H](Cn2nnc3ccc(C(F)(F)F)cc3c2=O)CC[C@@H]1C(=O)c1ccc(OCC2CCCCC2)cc1` (racemic) [Example 40, (+/−)-(1RS,2RS,5SR)-2-[4-(Cyclohexylmethoxy)benzoyl]-5-{[4-oxo-6-(trifluoromethyl)-1,2,3-benzotriazin-3(4H)-yl]methyl}cyclopentanecarboxylic acid], the pIC50 is 6.66 against mouse MMP-7, 7.60 against mouse MMP-8, 8.72 against mouse MMP-12 and 6.74 at mouse MMP-3.
For the molecule `CCCCCCOc1ccc(C(=O)[C@@H]2CC[C@H](Cn3nnc4ccc(C)cc4c3=O)[C@H]2C(=O)O)cc1` (single isomer, unassigned) [Example 121, (+)-(1RS,2RS,5SR)-2-[4-(Hexyloxy)benzoyl]-5-[(6-methyl-4-oxo-1,2,3-benzotriazin-3(4H)-yl)methyl]cyclopentanecarboxylic acid], the pIC50 was 7.00 against mouse MMP-7, 6.92 against mouse MMP-8, 8.40 on mouse MMP-12 and 5.57 at mouse MMP-3.
Turning to `O=C(O)[C@H]1[C@H](Cn2nnc3ccccc3c2=O)CC[C@@H]1C(=O)c1ccc(OCc2ccc(F)cc2)cc1` (racemic) [Example 1, (+/−)-(1RS,2RS,5SR)-2-{4-[(4-Fluorobenzyl)oxy]benzoyl}-5-[(4-oxo-1,2,3-benzotriazin-3(4H)-yl)methyl]cyclopentanecarboxylic acid], the pIC50 was 7.34 against mouse MMP-7, 7.74 at mouse MMP-8, 9.21 on mouse MMP-12 and 6.80 on mouse MMP-3.
In the case of `O=C(O)[C@@H]1[C@@H](Cn2nnc3ccc(C(F)(F)F)cc3c2=O)CC[C@H]1C(=O)c1ccc(OCC2CCCCC2)cc1` (single isomer, unassigned) [Example 41, (+)-(1RS,2RS,5SR)-2-[4-(Cyclohexylmethoxy)benzoyl]-5-{[4-oxo-6-(trifluoromethyl)-1,2,3-benzotriazin-3(4H)-yl]methyl}cyclopentanecarboxylic acid], the pIC50 is 7.57 at mouse MMP-7, 7.80 against mouse MMP-8, 9.15 against mouse MMP-12 and 6.10 on mouse MMP-3.
For `CCCCCOc1ccc(C(=O)[C@H]2CC[C@@H](Cn3nnc4ccc(C)cc4c3=O)[C@@H]2C(=O)O)cc1` (racemic) [Example 123, (+/−)-(1RS,2SR,5RS)-2-[(6-Methyl-4-oxo-1,2,3-benzotriazin-3(4H)-yl)methyl]-5-[4-(pentyloxy)benzoyl]cyclopentanecarboxylic acid], the pIC50 against mouse MMP-7 was 7.00; on mouse MMP-8, 7.04; against mouse MMP-12, 8.31; against mouse MMP-3, 5.74.
Consider `O=C(O)[C@@H]1[C@@H](Cn2nnc3ccc(C(F)(F)F)cc3c2=O)CC[C@H]1C(=O)c1ccc(OCc2cccc(Cl)c2)cc1` (single isomer, unassigned) [Example 23, (+)-(1RS,2RS,5SR)-2-{4-[(3-Chlorobenzyl)oxy]benzoyl}-5-{[4-oxo-6-(trifluoromethyl)-1,2,3-benzotriazin-3(4H)-yl]methyl}cyclopentanecarboxylic acid], for which the pIC50 on mouse MMP-7 was 7.16; at mouse MMP-8 it was 6.52; against mouse MMP-12, 8.19; on mouse MMP-3, 5.10.
For `Cc1ccc2nnn(C[C@H]3CC[C@@H](C(=O)c4ccc(OCc5ccccc5)cc4)[C@@H]3C(=O)O)c(=O)c2c1` (single isomer, unassigned) [Example 92, (+)-(1RS,2RS,5SR)-2-[4-(Benzyloxy)benzoyl]-5-[(6-methyl-4-oxo-1,2,3-benzotriazin-3(4H)-yl)methyl]cyclopentanecarboxylic acid], in that order: 7.74, 7.80, 9.38 and 6.70.

The values above are taken from US20170022171A1, “2,5-DISUBSTITUTED CYCLOPENTANECARBOXYLIC ACIDS AND THEIR USE” (Bayer Pharma Aktiengesellschaft, priority 2014, published 2017).
